Results published in patent US8012998B2, “Pyrrolidine aryl-ether as NK-3 receptor antagonists” (Hoffmann—LA Roche Inc., priority 2007, dated 2011).

molecular target: T1, human NK3 receptor (Homo sapiens, UniProt P29371); experiment: [3H]SR142801 competition binding assay (hNK3 receptor binding); conditions: [3H]SR142801 radioligand; membranes from HEK293 cells transiently expressing recombinant human NK3 receptor; Ki by Cheng-Prussoff; read-out: KiNK3 h
T1 construct: expressed in transfected cells; host or cells: HEK293 cells (transient expression), membrane preparation
T1 sequence (P29371 1-465): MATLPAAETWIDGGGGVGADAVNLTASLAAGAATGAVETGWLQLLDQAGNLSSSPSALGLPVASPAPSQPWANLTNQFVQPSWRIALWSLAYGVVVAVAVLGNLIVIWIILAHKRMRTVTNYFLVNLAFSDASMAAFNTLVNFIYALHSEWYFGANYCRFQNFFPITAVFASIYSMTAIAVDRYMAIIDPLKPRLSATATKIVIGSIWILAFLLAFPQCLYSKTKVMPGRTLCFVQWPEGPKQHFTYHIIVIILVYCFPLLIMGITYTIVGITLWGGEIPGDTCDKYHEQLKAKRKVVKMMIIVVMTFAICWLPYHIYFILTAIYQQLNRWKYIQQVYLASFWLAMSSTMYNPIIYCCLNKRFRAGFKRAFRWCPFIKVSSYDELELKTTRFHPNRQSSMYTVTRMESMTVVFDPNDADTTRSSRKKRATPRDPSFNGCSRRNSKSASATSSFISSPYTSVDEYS
Procedure, shortened: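 Competition binding with [3H]SR142801 on membranes of HEK293 cells transiently expressing human NK3, 5 μg protein/well, in Tris-HCl/MnCl2/phosphoramidon/BSA buffer pH 7.4. Nonspecific binding defined with 10 μM SB222200; filtration then scintillation counting. IC50 from Hill fit was converted to Ki by Cheng-Prusoff; duplicate, mean ± SEM.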

Ki [nM]	Compound
9.2	Cc1ccc(C(=O)N2C[C@@H]([C@@H](C)Oc3ccc(Cl)cn3)[C@H](c3ccc(Cl)c(Cl)c3)C2)cn1 (racemic) [Example 16, [(3SR,4RS)-3-[(RS)-1-(5-Chloro-pyridin-2-yloxy)-ethyl]-4-(3,4-dichloro-phenyl)-pyrrolidin-1-yl]-(6-methyl-pyridin-3-yl)-methanone]
12.5	C[C@@H](Oc1ccc(Cl)cn1)[C@@H]1CN(C(=O)c2ccc(S(C)(=O)=O)nc2)C[C@H]1c1ccc(Cl)c(Cl)c1 (racemic) [Example 47, [(3SR,4RS)-3-[(RS)-1-(5-Chloro-pyridin-2-yloxy)-ethyl]-4-(3,4-dichloro-phenyl)-pyrrolidin-1-yl]-(6-methanesulfonyl-pyridin-3-yl)-methanone]
27.2	Cc1ncc(C(=O)N2C[C@H]([C@H](C)Oc3ccc(C(F)(F)F)cn3)[C@@H](c3ccc(Cl)c(Cl)c3)C2)cn1 (racemic) [Example 79, {(3SR,4RS)-3-(3,4-Dichloro-phenyl)-4-[(SR)-1-(5-trifluoromethyl-pyridin-2-yloxy)-ethyl]-pyrrolidin-1-yl}-(2-methyl-pyrimidin-5-yl)-methanone]
6.1	C[C@H](Oc1ccc(C#N)cn1)[C@H]1CN(C(=O)c2ccc(-n3ccnc3)nc2)C[C@@H]1c1ccc(Cl)c(Cl)c1 (racemic) [Example 71, 6-{(SR)-1-[(3RS,4SR)-4-(3,4-Dichloro-phenyl)-1-(6-imidazol-1-yl-pyridine-3-carbonyl)-pyrrolidin-3-yl]-ethoxy}-nicotinonitrile]
6.3	Cc1cc(C(=O)N2C[C@@H]([C@@H](C)Oc3ccc(Cl)cn3)[C@H](c3ccc(Cl)c(Cl)c3)C2)ccn1 (racemic) [Example 15, [(3SR,4RS)-3-[(RS)-1-(5-Chloro-pyridin-2-yloxy)-ethyl]-4-(3,4-dichloro-phenyl)-pyrrolidin-1-yl]-(2-methyl-pyridin-4-yl)-methanone]
42.6	CSc1ncc(C(=O)N2C[C@@H]([C@@H](C)Oc3ccc(Cl)cn3)[C@H](c3ccc(Cl)c(Cl)c3)C2)cn1 (racemic) [Example 48, [(3SR,4RS)-3-[(RS)-1-(5-Chloro-pyridin-2-yloxy)-ethyl]-4-(3,4-dichloro-phenyl)-pyrrolidin-1-yl]-(2-methylsulfanyl-pyrimidin-5-yl)-methanone]
27.2	Cc1cc(C(=O)N2C[C@H]([C@H](C)Oc3ccc(C#N)cn3)[C@@H](c3ccc(Cl)c(Cl)c3)C2)c(Cl)nn1 (racemic) [Example 78, 6-{(SR)-1-[(3RS,4SR)-1-(3-Chloro-6-methyl-pyridazine-4-carbonyl)-4-(3,4-dichloro-phenyl)-pyrrolidin-3-yl]-ethoxy}-nicotinonitrile]
31.6	Cc1ncc(C(=O)N2C[C@@H]([C@@H](C)Oc3ccc(Cl)cn3)[C@@H](c3ccc(Cl)c(Cl)c3)C2)c(C)n1 (racemic) [Example 37]
66	COc1ccc(C(=O)N2C[C@@H]([C@@H](C)Oc3ccc(F)cn3)[C@H](c3ccc(Cl)c(Cl)c3)C2)cn1 (racemic) [Example 26, {(3RS,4SR)-3-(3,4-Dichloro-phenyl)-4-[(RS)-1-(5-fluoro-pyridin-2-yloxy)-ethyl]-pyrrolidin-1-yl}-(6-methoxy-pyridin-3-yl)-methanone]
2	C[C@H](Oc1ccc(Cl)cn1)[C@H]1CN(C(=O)c2ccc(C#N)nc2)C[C@@H]1c1ccc(Cl)c(Cl)c1 (single isomer, unassigned) [Example 54]
17	C[C@@H](Oc1ccc(Cl)cn1)[C@@H]1CN(C(=O)c2ccc(N)nc2)C[C@H]1c1ccc(Cl)c(Cl)c1 (racemic) [Example 20, (6-Amino-pyridin-3-yl)-[(3SR,4RS)-3-[(RS)-1-(5-chloro-pyridin-2-yloxy)-ethyl]-4-(3,4-dichloro-phenyl)-pyrrolidin-1-yl]-methanone]
9.3	C[C@@H](Oc1ccc(Cl)cn1)[C@@H]1CN(C(=O)c2ccc(CN(C)C)nc2)C[C@H]1c1ccc(Cl)c(Cl)c1 (racemic) [Example 39, [(3SR,4RS)-3-[(RS)-1-(5-Chloro-pyridin-2-yloxy)-ethyl]-4-(3,4-dichloro-phenyl)-pyrrolidin-1-yl]-(6-dimethylaminomethyl-pyridin-3-yl)-methanone]
24.1	Cc1ncc(C(=O)N2C[C@H]([C@H](C)Oc3ccc(Cl)cn3)[C@@H](c3ccc(Cl)cc3)C2)cn1 [Example 109, {(3S,4R)-3-(4-Chloro-phenyl)-4-[(S)-1-(5-chloro-pyridin-2-yloxy)-ethyl]-pyrrolidin-1-yl}-(2-methyl-pyrimidin-5-yl)-methanone]
2.6	Cc1cc(C(=O)N2C[C@H]([C@H](C)Oc3ccc(Cl)cn3)[C@@H](c3ccc(Cl)c(F)c3)C2)cnn1 [Example 107, {(3S,4R)-3-(4-Chloro-3-fluoro-phenyl)-4-[(S)-1-(5-chloro-pyridin-2-yloxy)-ethyl]-pyrrolidin-1-yl}-(6-methyl-pyridazin-4-yl)-methanone]
6.5	C[C@H](Oc1ccc(C(F)(F)F)cn1)[C@H]1CN(C(=O)c2ccc(C#N)cc2)C[C@@H]1c1ccc(Cl)c(Cl)c1 (racemic) [Example 55, 4-{(3SR,4RS)-3-(3,4-Dichloro-phenyl)-4-[(SR)-1-(5-trifluoromethyl-pyridin-2-yloxy)-ethyl]-pyrrolidine-1-carbonyl}-benzonitrile]
3.2	C[C@H](Oc1ccc(C(F)(F)F)cn1)[C@H]1CN(C(=O)c2ccnc(Cl)c2)C[C@@H]1c1ccc(Cl)c(Cl)c1 (racemic) [Example 82, (2-Chloro-pyridin-4-yl)-{(3SR,4RS)-3-(3,4-dichloro-phenyl)-4-[(SR)-1-(5-trifluoromethyl-pyridin-2-yloxy)-ethyl]-pyrrolidin-1-yl}-methanone]
35.7	Cc1nccn1-c1ccc(C(=O)N2C[C@H]([C@H](C)Oc3ccc(C#N)cn3)[C@@H](c3ccc(Cl)c(Cl)c3)C2)cc1 (racemic) [Example 64, 6-((SR)-1-{(3RS,4SR)-4-(3,4-Dichloro-phenyl)-1-[4-(2-methyl-imidazol-1-yl)-benzoyl]-pyrrolidin-3-yl}-ethoxy)-nicotinonitrile]
0.5	C[C@H](Oc1ccc(C#N)cn1)[C@H]1CN(C(=O)c2ccc(S(=O)(=O)N(C)C)nc2)C[C@@H]1c1ccc(Cl)c(Cl)c1 (racemic) [Example 58, 5-[(3RS,4SR)-3-[(SR)-1-(5-Cyano-pyridin-2-yloxy)-ethyl]-4-(3,4-dichloro-phenyl)-pyrrolidine-1-carbonyl]-pyridine-2-sulfonic acid dimethylamide]
78.7	C[C@@H](Oc1ccc(Cl)cn1)[C@@H]1CN(C(=O)c2cnc(S(C)(=O)=O)nc2)C[C@H]1c1ccc(Cl)c(Cl)c1 (racemic) [Example 51, [(3SR,4RS)-3-[(RS)-1-(5-Chloro-pyridin-2-yloxy)-ethyl]-4-(3,4-dichloro-phenyl)-pyrrolidin-1-yl]-(2-methanesulfonyl-pyrimidin-5-yl)-methanone]
46	Cc1ncc(C(=O)N2C[C@H]([C@H](C)Oc3ccc(Cl)cn3)[C@@H](c3ccc(F)c(Cl)c3)C2)cn1 [Example 101, {(3S,4R)-3-(3-Chloro-4-fluoro-phenyl)-4-[(S)-1-(5-chloro-pyridin-2-yloxy)-ethyl]-pyrrolidin-1-yl}-(2-methyl-pyrimidin-5-yl)-methanone]
1.9	C[C@@H](Oc1ccc(Cl)cn1)[C@@H]1CN(C(=O)c2ccc(CCN3CCCC3)nc2)C[C@H]1c1ccc(Cl)c(Cl)c1 (racemic) [Example 46, [(3SR,4RS)-3-[(RS)-1-(5-Chloro-pyridin-2-yloxy)-ethyl]-4-(3,4-dichloro-phenyl)-pyrrolidin-1-yl]-[6-(2-pyrrolidin-1-yl-ethyl)-pyridin-3-yl]-methanone]
17.7	Cc1cc(C(=O)N2C[C@H]([C@H](C)Oc3ccc(Cl)cn3)[C@@H](c3ccc(F)c(F)c3)C2)c(C)nn1 [Example 113, [(3R,4S)-3-[(S)-1-(5-Chloro-pyridin-2-yloxy)-ethyl]-4-(3,4-difluoro-phenyl)-pyrrolidin-1-yl]-(3,6-dimethyl-pyridazin-4-yl)-methanone]
27.8	C[C@@H](Oc1ccc(Cl)cn1)[C@@H]1CN(C(=O)c2ccc(F)nc2)C[C@H]1c1ccc(Cl)c(Cl)c1 (racemic) [Example 14, [(3SR,4RS)-3-[(RS)-1-(5-Chloro-pyridin-2-yloxy)-ethyl]-4-(3,4-dichloro-phenyl)-pyrrolidin-1-yl]-(6-fluoro-pyridin-3-yl)-methanone]
59	Cc1cc(C(=O)N2C[C@@H]([C@@H](C)Oc3ccc(Cl)cn3)[C@H](c3ccc(Cl)c(Cl)c3)C2)c(C)o1 (racemic) [Example 28, [(3SR,4RS)-3-[(RS)-1-(5-Chloro-pyridin-2-yloxy)-ethyl]-4-(3,4-dichloro-phenyl)-pyrrolidin-1-yl]-(2,5-dimethyl-furan-3-yl)-methanone]
47	COc1ccc(C(=O)N2C[C@@H]([C@@H](C)Oc3ccc(C#N)cn3)[C@H](c3ccc(Cl)c(Cl)c3)C2)cn1 (racemic) [Example 34, 6-{(RS)-1-[(3SR,4RS)-4-(3,4-Dichloro-phenyl)-1-(6-methoxy-pyridine-3-carbonyl)-pyrrolidin-3-yl]-ethoxy}-nicotinonitrile]
